Where two headings read alike, the source gives them in different places.
What was measured:
human CYP2C19 = human CYP2C19 (Homo sapiens, UniProt P33261); assay: Fluorometric CYP inhibition assay; format: biochemical; details: read-out: IC50 CYP2C19 activity; recombinant human CYP2C19, CEC 25 μM
[1] = tested on: MCF-10A breast epithelial cells; assay: Reactive oxygen species; format: cell-based, human; details: 2 h, MCF-10A cells
[2] = tested on: MCF-7 breast cancer cells; assay: Alamar Blue cell viability assay, 72 h; format: cell-based; details: read-out: IC50 MCF-7 cell viability, 72 h
[3] = tested on: MCF-10A breast epithelial cells; assay: Cell viability assay; format: cell-based, human; details: for IC50 MCF-10A: 24 h exposure, 1 nM-100 μM, MTS or Alamar Blue, mean ±SEM; for IC50: Homo sapiens, MCF-10A, 24 h, read-out: IC50 MCF-10A
[4] = tested on: CCD18 Co normal colon cells; assay: Cell viability assay; format: cell-based; details: for IC50 CCD18 Co: 24 h exposure, 1 nM-100 μM, MTS or Alamar Blue, mean ±SEM
[5] = tested on: HT29 colon carcinoma cells; assay: Cell viability assay; format: cell-based; details: for IC50 HT29: 24 h exposure, 1 nM-100 μM, MTS or Alamar Blue, mean ±SEM; for IC50: Homo sapiens, HT-29, 24 h, read-out: IC50 HT29
MCF-7 cells [6] = assay: Alamar Blue cell viability assay, 24 h; format: cell-based; details: read-out: IC50 MCF-7 (Alamar Blue), 24 h treatment
MCF-7 cells [7] = assay: Annexin V-7AAD apoptosis assay; format: cell-based; details: 1 μM, 24 h, AnnexinV-7AAD
human CYP1A1 = target: T1, human CYP1A1 (Homo sapiens, UniProt P04798); assay: Fluorometric CYP inhibition assay; format: biochemical
T1 sequence (P04798 1-512): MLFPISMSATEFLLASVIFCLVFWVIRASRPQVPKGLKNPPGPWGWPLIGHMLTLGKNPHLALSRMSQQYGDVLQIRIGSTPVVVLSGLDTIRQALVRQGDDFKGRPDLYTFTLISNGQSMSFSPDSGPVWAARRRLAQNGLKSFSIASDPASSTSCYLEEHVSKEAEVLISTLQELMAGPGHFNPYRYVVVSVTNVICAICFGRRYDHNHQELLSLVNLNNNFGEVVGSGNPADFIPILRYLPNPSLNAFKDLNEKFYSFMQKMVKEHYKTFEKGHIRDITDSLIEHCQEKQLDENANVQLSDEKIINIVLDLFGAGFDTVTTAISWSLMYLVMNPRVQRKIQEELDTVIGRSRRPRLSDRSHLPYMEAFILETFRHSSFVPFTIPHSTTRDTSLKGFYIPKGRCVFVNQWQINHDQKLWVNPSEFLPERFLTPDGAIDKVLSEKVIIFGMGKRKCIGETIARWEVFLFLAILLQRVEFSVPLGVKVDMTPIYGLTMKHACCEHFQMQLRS

human CYP1B1 = target: T2, human CYP1B1 (Homo sapiens, UniProt Q16678); assay: Fluorometric CYP inhibition assay; format: biochemical; details: recombinant human CYP1B1
T2 sequence (Q16678 1-543): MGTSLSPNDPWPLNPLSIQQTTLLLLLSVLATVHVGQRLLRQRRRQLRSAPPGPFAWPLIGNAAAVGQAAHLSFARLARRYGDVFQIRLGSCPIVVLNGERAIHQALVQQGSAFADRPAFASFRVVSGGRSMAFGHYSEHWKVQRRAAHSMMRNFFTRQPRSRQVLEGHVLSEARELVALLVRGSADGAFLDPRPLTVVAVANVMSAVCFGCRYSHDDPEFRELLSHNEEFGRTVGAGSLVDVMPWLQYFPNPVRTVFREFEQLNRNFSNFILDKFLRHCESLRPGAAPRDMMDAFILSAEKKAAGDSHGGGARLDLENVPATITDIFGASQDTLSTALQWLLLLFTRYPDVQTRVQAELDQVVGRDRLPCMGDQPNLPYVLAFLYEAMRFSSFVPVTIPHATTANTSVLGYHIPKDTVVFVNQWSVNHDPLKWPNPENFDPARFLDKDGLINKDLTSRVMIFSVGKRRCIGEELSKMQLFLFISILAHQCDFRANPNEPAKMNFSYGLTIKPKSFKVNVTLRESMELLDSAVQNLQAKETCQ

human CYP3A4 = human CYP3A4 (Homo sapiens, UniProt P08684); assay: Fluorometric CYP inhibition assay; format: biochemical; details: read-out: IC50 CYP3A4 activity; recombinant human CYP3A4, BFC 50 μM
CYP1A1 mRNA = assay: Real-time quantitative RT-PCR, B[a]P-induced gene expression in MCF-7 cells; format: cell-based; details: Gg 10-100 nM with B[a]P, 24 h
CYP1A2 mRNA = assay: as above; format: cell-based; details: Gg 10-100 nM with B[a]P, 24 h
CYP1 enzymes mRNA = assay: Endogenous CYP1 mRNA expression in breast cancer cells; format: cell-based; details: Gg alone, data not shown
[8] = tested on: CYP1A1 protein expression; assay: B[a]P-induced CYP1A1 protein expression; format: cell-based; details: data not shown

Chain of human CYP2C19 (P33261 whole entry): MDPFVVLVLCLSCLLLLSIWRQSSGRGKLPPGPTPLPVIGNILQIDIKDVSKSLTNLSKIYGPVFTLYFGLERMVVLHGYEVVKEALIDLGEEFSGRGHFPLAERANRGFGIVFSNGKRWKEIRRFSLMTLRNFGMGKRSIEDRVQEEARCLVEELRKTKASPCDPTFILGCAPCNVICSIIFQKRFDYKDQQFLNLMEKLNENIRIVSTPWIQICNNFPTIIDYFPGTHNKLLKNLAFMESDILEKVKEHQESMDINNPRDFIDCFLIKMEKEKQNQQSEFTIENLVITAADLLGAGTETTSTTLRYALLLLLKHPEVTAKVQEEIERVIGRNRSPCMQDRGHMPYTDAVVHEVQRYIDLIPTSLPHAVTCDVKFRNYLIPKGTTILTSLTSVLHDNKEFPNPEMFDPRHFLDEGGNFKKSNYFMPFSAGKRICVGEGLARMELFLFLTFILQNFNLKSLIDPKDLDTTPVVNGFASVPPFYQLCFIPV
Chain of human CYP3A4 (P08684 whole entry): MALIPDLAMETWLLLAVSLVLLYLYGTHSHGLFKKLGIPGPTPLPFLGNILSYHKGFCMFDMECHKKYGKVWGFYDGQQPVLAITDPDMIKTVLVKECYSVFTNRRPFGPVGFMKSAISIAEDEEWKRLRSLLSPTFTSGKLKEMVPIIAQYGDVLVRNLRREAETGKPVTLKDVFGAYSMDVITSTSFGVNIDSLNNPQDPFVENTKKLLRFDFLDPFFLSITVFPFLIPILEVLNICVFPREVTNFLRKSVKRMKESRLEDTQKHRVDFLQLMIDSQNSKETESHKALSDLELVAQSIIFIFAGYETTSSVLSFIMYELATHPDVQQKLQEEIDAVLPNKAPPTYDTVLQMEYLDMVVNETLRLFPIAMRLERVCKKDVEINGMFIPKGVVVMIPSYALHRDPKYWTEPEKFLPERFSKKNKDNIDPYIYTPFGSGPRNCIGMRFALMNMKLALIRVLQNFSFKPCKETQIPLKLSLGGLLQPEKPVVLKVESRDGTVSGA

CCC1(c2ccccc2)C(=O)NC(=O)N(Cc2ccccc2)C1=O (single isomer, unassigned; (-)) [NBPB, (−)-N-3-benzyl-phenobarbital, reference compound]
IC50 (human CYP2C19): 0.3 ± 0.01 µM

O=C1C=Cc2ccc3c4c(ccc1c24)-c1ccccc1C3=O [1,6-BPQ, benzo[a]pyrene-1,6-quinone, reference compound]
increase in ROS levels ([1]; 1,6-BPQ 2 μM): 2 fold

CC/C(=C(\c1ccc(O)cc1)c1ccc(OCCN(C)C)cc1)c1ccccc1 [4OH-Tam, 4-hydroxy-tamoxifen]
IC50 ([2]; Homo sapiens, MCF7, 72 h): 2.6 µM

O=c1[nH]cc(F)c(=O)[nH]1 [5-Fluorouracil, reference compound]
IC50 MCF-10A [3]: NI (No inhibition (<10% inhibition at 60 μM)) | IC50 ([2]; Homo sapiens, MCF7, 72 h): > 10 µM

CC1=CC(=O)[C@@H](O)[C@]2(C)[C@H]3[C@]4(O)OC[C@]35[C@H]([C@@H](C)[C@H]4O)[C@@H](O)C(=O)O[C@@H]5C[C@@H]12 [(−)-Glaucarubolone, (−)-glaucarubolone]
IC50 CCD18 Co [4]: NI (No inhibition (<10% inhibition at 60 μM)) | IC50 HT29 [5]: NI (No inhibition (<10% inhibition at 60 μM)) | IC50 MCF-10A [3]: NI (No inhibition (<10% inhibition at 60 μM))

CC(=O)O[C@H]1C(=O)O[C@@H]2C[C@H]3C(C)=CC(=O)[C@@H](O)[C@]3(C)[C@H]3[C@]4(O)OC[C@]32[C@@H]1[C@@H](C)[C@H]4O [(−)-Holacanthone, (−)-holacanthone]
IC50 ([4]; Homo sapiens, CCD-18Co, 24 h, read-out: IC50 CCD18 Co): < 5 µM | IC50 [5]: 9.91 ± 0.52 µM | IC50 [3]: 0.3 µM

COc1cccc2c1C(=O)c1c(O)c3c(c(O)c1C2=O)C[C@@](O)(C(=O)CO)C[C@@H]3O[C@H]1C[C@H](N)[C@H](O)[C@H](C)O1 [Doxorubicin, reference compound]
IC50 [3]: 30.2 ± 1.29 µM | IC50 ([2]; Homo sapiens, MCF7, 72 h): 0.1 µM

COc1cc2ccc(=O)oc2cc1O [Scopoletin, scopoletin]
IC50 CCD18 Co [4]: NI (No inhibition (<10% inhibition at 60 μM)) | inhibition of viability of CCD18Co normal colon cells ([4]; at 60 μM, 24 h): < 10% | IC50 [5]: 19.3 ± 0.348 µM | IC50 MCF-10A [3]: NI (No inhibition (<10% inhibition at 60 μM))

glaucarubulone glucoside [Gg]
IC50 HT29 [5]: NI (No inhibition (<10% inhibition at 60 μM)) | IC50 MCF-10A [3]: NI (No inhibition (<10% inhibition at 60 μM)) | IC50 (MCF-7 cells [6]): 3.52 ± 0.918 µM | IC50 ([2]; 72 h exposure, Alamar Blue): 0.121 µM | early apoptosis (MCF-7 cells [7]): 26.5 ± 9.5% | mode of inhibition of CYP1A1 (human CYP1A1; Eadie-Hofstee plots): non-competitive | IC50 (human CYP1A1; read-out: IC50 CYP1A1 activity, recombinant human CYP1A1, CEC 0.5 μM): 6.93 ± 0.31 µM | Ki (human CYP1A1; read-out: Ki CYP1A1, Eadie-Hofstee plots, non-competitive inhibition): 7.1 ± 1.44 µM | inhibition of CYP1B1 activity (human CYP1B1): moderately inhibited | IC50 (human CYP2C19): 19.4 ± 1.11 µM | IC50 (human CYP3A4): 1.31 ± 0.49 µM | effect on B[a]P-induced CYP1A1 mRNA expression (CYP1A1 mRNA): inhibited B[a]P-induced CYP1A1 mRNA expression in a dose-dependent fashion | effect on B[a]P-induced CYP1A2 mRNA expression (CYP1A2 mRNA): sustained inhibition | effect on 1,6-BPQ-mediated increases in ROS production ([1]; Gg 1 μM with 1,6-BPQ 2 μM): effectively suppressed | effect on endogenous mRNA expression of CYP1 enzymes (CYP1 enzymes mRNA): did not appreciably affect | effect on B[a]P-mediated induced CYP1A1 protein expression [8]: could not appreciably suppress

Reference: PMC5435539 (Journal of applied toxicology : JAT, 2017)
